Data: ChEMBL document CHEMBL5724914, “Linking interpersonal differences in gut microbiota composition and drug biotransformation activity” (2024)

How the values were obtained:
[1] = The drug is tested on WLS-098 corresponding to human gut metagenome with ENA study accession number: PRJEB37062 and ENA sample accession number: ERS12561754 for biotransformation under anaerobic condition. The drug concentrations were measured over 9 timepoints collected between 0 and 24 hours of incubation by liquid-chromatography-coupled mass spectrometry (LC–MS); conditions: 2 µM
[2] = The drug is tested on WLS-006 corresponding to human gut metagenome with ENA study accession number: PRJEB37062 and ENA sample accession number: ERS12561741 for biotransformation under anaerobic condition. The drug concentrations were measured over 9 timepoints collected between 0 and 24 hours of incubation by liquid-chromatography-coupled mass spectrometry (LC–MS); conditions: 2 µM
[3] = The drug is tested on Z-024 corresponding to pig gut metagenome with ENA study accession number: PRJEB37062 and ENA sample accession number: ERS12561823 for biotransformation under anaerobic condition. The drug concentrations were measured over 9 timepoints collected between 0 and 24 hours of incubation by liquid-chromatography-coupled mass spectrometry (LC–MS); conditions: 2 µM
[4] = The drug is tested on Z-011 corresponding to mouse gut metagenome with ENA study accession number: PRJEB37062 and ENA sample accession number: ERS12561811 for biotransformation under anaerobic condition. The drug concentrations were measured over 9 timepoints collected between 0 and 24 hours of incubation by liquid-chromatography-coupled mass spectrometry (LC–MS); conditions: 2 µM
[5] = The drug is tested on WLS-069 corresponding to human gut metagenome with ENA study accession number: PRJEB37062 and ENA sample accession number: ERS12561748 for biotransformation under anaerobic condition. The drug concentrations were measured over 9 timepoints collected between 0 and 24 hours of incubation by liquid-chromatography-coupled mass spectrometry (LC–MS); conditions: 2 µM
[6] = The drug is tested on Z-016 corresponding to mouse gut metagenome with ENA study accession number: PRJEB37062 and ENA sample accession number: ERS12561815 for biotransformation under anaerobic condition. The drug concentrations were measured over 9 timepoints collected between 0 and 24 hours of incubation by liquid-chromatography-coupled mass spectrometry (LC–MS); conditions: 2 µM
[7] = The drug is tested on Z-026 corresponding to metagenome with ENA study accession number: PRJEB37062 and ENA sample accession number: ERS12561825 for biotransformation under anaerobic condition. The drug concentrations were measured over 9 timepoints collected between 0 and 24 hours of incubation by liquid-chromatography-coupled mass spectrometry (LC–MS); conditions: 2 µM
[8] = human gut metagenome, 24 h, 2 µM
[9] = The drug is tested on Z-014 corresponding to rat gut metagenome with ENA study accession number: PRJEB37062 and ENA sample accession number: ERS12561814 for biotransformation under anaerobic condition. The drug concentrations were measured over 9 timepoints collected between 0 and 24 hours of incubation by liquid-chromatography-coupled mass spectrometry (LC–MS); conditions: 2 µM
[10] = human gut metagenome, 24 h, 2 µM; remark: listed apart in the source
[11] = human gut metagenome, 24 h, 2 µM; remark: listed apart in the source
[12] = The drug is tested on Z-012 corresponding to metagenome with ENA study accession number: PRJEB37062 and ENA sample accession number: ERS12561812 for biotransformation under anaerobic condition. The drug concentrations were measured over 9 timepoints collected between 0 and 24 hours of incubation by liquid-chromatography-coupled mass spectrometry (LC–MS); conditions: 2 µM
[13] = The drug is tested on Z-030 corresponding to mouse gut metagenome with ENA study accession number: PRJEB37062 and ENA sample accession number: ERS12561829 for biotransformation under anaerobic condition. The drug concentrations were measured over 9 timepoints collected between 0 and 24 hours of incubation by liquid-chromatography-coupled mass spectrometry (LC–MS); conditions: 2 µM
[14] = human gut metagenome, 24 h, 2 µM; remark: listed apart in the source
[15] = The drug is tested on WLS-010 corresponding to human gut metagenome with ENA study accession number: PRJEB37062 and ENA sample accession number: ERS12561743 for biotransformation under anaerobic condition. The drug concentrations were measured over 9 timepoints collected between 0 and 24 hours of incubation by liquid-chromatography-coupled mass spectrometry (LC–MS); conditions: 2 µM
[16] = The drug is tested on WLS-077 corresponding to human gut metagenome with ENA study accession number: PRJEB37062 and ENA sample accession number: ERS12561750 for biotransformation under anaerobic condition. The drug concentrations were measured over 9 timepoints collected between 0 and 24 hours of incubation by liquid-chromatography-coupled mass spectrometry (LC–MS); conditions: 2 µM
[17] = human gut metagenome, 24 h, 2 µM; remark: listed apart in the source
[18] = human gut metagenome, 24 h, 2 µM; remark: listed apart in the source
[19] = human gut metagenome, 24 h, 2 µM; remark: listed apart in the source
[20] = human gut metagenome, 24 h, 2 µM; remark: listed apart in the source
Further: call rule not given here.

CN(C)CCC=C1c2ccccc2COc2ccccc21 [DOXEPIN]
Bacterial Biotransformation [1]: Compound metabolized
Bacterial Biotransformation [2]: Compound NOT metabolized
Bacterial Biotransformation [3]: Compound metabolized
Bacterial Biotransformation [4]: Compound NOT metabolized
Bacterial Biotransformation [5]: Compound metabolized
Bacterial Biotransformation [6]: Compound NOT metabolized
Bacterial Biotransformation [7]: Compound NOT metabolized
Bacterial Biotransformation [8]: Compound NOT metabolized
Bacterial Biotransformation [9]: Compound NOT metabolized
Bacterial Biotransformation [10]: Compound metabolized
Bacterial Biotransformation [11]: Compound metabolized
Bacterial Biotransformation [12]: Compound NOT metabolized
Bacterial Biotransformation [13]: Compound NOT metabolized
Bacterial Biotransformation [14]: Compound NOT metabolized
Bacterial Biotransformation [15]: Compound NOT metabolized
Bacterial Biotransformation [16]: Compound NOT metabolized
Bacterial Biotransformation [17]: Compound NOT metabolized
Bacterial Biotransformation [18]: Compound NOT metabolized
Bacterial Biotransformation [19]: Compound metabolized
Bacterial Biotransformation [20]: Compound NOT metabolized
